How the values were obtained:
[1] = tested on: C3A (Hepatocellular Carcinoma); test: Bliss excess, mean over the matrix (fraction); higher = more synergy
Procedure, shortened: (§1)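 Cell lines in DMEM/F12 or RPMI with 10% FBS were plated in 1536-well plates, held 24 hours at 37°C, 5% CO2, then given two-drug dose matrices for 72 hours (DMSO typically 0.2%). Viability was read by CellTiter-Glo 2.0 luminescence and scaled as inhibition from 0 (vehicle wells) to 1 (blank wells). Combination Emax is the second-highest inhibition in the matrix; Bliss excess is observed combination effect minus expected EA + EB − EA·EB, EA and EB being single-agent effects.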

[2] = tested on: COR-L23 (Non-Small Cell Lung Carcinoma); test: as above
Procedure, shortened: as §1

[3] = tested on: DMS-273 (Small Cell Lung Carcinoma); test: as above
Procedure, shortened: as §1

[4] = tested on: HCC2157 (Breast Carcinoma); test: as above
Procedure, shortened: as §1

[5] = tested on: HT-29 (Colorectal Carcinoma); test: as above
Procedure, shortened: as §1

NCI-H2595 (Mesothelioma) = test: as above
Procedure, shortened: as §1

RH-1 (Ewing's Sarcoma) = test: as above
Procedure, shortened: as §1

[6] = tested on: SW1783 (Low Grade Glioma); test: as above
Procedure, shortened: as §1

[7] = tested on: SW756 (Cervical Carcinoma); test: as above
Procedure, shortened: as §1

[8] = tested on: SW780 (Bladder Carcinoma); test: as above
Procedure, shortened: as §1

[9] = tested on: U-266 (Plasma Cell Myeloma); test: as above
Procedure, shortened: as §1

[10] = tested on: 697 (B-Lymphoblastic Leukemia); test: combination Emax (second highest fraction inhibited in the dose matrix, 72 h); higher = more inhibition; extreme values may be limits of the assay
Procedure, shortened: as §1

[11] = tested on: DMS-273 (Small Cell Lung Carcinoma); test: as above
Procedure, shortened: as §1

ES7 (Ewing's Sarcoma) = test: as above
Procedure, shortened: as §1

[12] = tested on: HPAC (Pancreatic Carcinoma); test: as above
Procedure, shortened: as §1

[13] = tested on: JiyoyeP-2003 (Burkitt's Lymphoma); test: as above
Procedure, shortened: as §1

[14] = tested on: KM-H2 (Hodgkin's Lymphoma); test: as above
Procedure, shortened: as §1

[15] = tested on: LU-99A (Non-Small Cell Lung Carcinoma); test: as above
Procedure, shortened: as §1

[16] = tested on: SUIT-2 (Pancreatic Carcinoma); test: as above
Procedure, shortened: as §1

[17] = tested on: U-266 (Plasma Cell Myeloma); test: as above
Procedure, shortened: as §1
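Wherever Bliss excess, mean over the matrix is given: after 72 h of two-drug dosing.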

Compound | Bliss excess [1] | Bliss excess [2] | Bliss excess [3] | Bliss excess [4] | Bliss excess [5] | Bliss excess (NCI-H2595 (Mesothelioma)) | Bliss excess (RH-1 (Ewing's Sarcoma)) | Bliss excess [6] | Bliss excess [7] | Bliss excess [8] | Bliss excess [9] | combination Emax [10] | combination Emax [11] | combination Emax (ES7 (Ewing's Sarcoma)) | combination Emax [12] | combination Emax [13] | combination Emax [14] | combination Emax [15] | combination Emax [16] | combination Emax [17]
CN(CCO)CC[C@H](CSc1ccccc1)Nc1ccc(S(=O)(=O)NC(=O)c2ccc(N3CCC([C@@H](O)c4ccccc4-c4ccc(Cl)cc4)CC3)cc2)cc1S(=O)(=O)C(F)(F)F [AZD4320] + Cc1cc2ncnn2cc1Nc1ncc2c(n1)n(C1CCOCC1)c(=O)n2C [AZD7648] (first compound max 1 µM, 7x7, partner max 10 µM) | -0.0546 | -0.0348 | 0.0127 | 0.0378 | -0.0293 | -0.0214 | -0.0018 | -0.044 | -0.051 | -0.0578 | -0.0005 | 1 | 0.398 | 0.804 | 0.321 | 0.639 | 0.0312 | 0.447 | 0.104 | 0.622
CCc1c2c(nc3ccc(O)cc13)-c1cc3c(c(=O)n1C2)COC(=O)[C@]3(O)CC [SN-38] + CN(C)CCCOc1ccc(-c2ccc3ncc4c(c3c2)n(C2CCOCC2)c(=O)n4C)cn1 [AZD0156] (first compound max 0.3 µM, 7x7, partner max 1 µM) | -0.0646 | 0.014 | 0.0377 | 0.142 | 0.0693 | -0.0399 | 0.0845 | -0.039 | -0.0273 | -0.0475 | -0.0099 | 1 | 0.802 | 1 | 0.38 | 0.975 | 0.907 | 0.769 | 0.744 | 0.482
CC(=O)c1c(C)c2cnc(Nc3ccc(N4CCNCC4)cn3)nc2n(C2CCCC2)c1=O [Palbociclib] + CC1(C)CCC(CN2CCN(c3ccc(C(=O)NS(=O)(=O)c4ccc(NCC5CCOCC5)c([N+](=O)[O-])c4)c(Oc4cnc5[nH]ccc5c4)c3)CC2)=C(c2ccc(Cl)cc2)C1 [Venetoclax] (first compound max 10 µM, 7x7, partner max 1 µM) | 0.0437 | -0.0429 | -0.0263 | 0.0389 | -0.0139 | -0.0557 | 0.0175 | -0.0484 | -0.062 | -0.0395 | -0.116 | 1 | 0.351 | 0.644 | 0.204 | 0.614 | 0.383 | 0.319 | 0.0936 | 0.35
Cc1cc2ncnn2cc1Nc1ncc2c(n1)n(C1CCOCC1)c(=O)n2C [AZD7648] + CCN(CCO)CCCOc1ccc2c(Nc3cc(CC(=O)Nc4cccc(F)c4)[nH]n3)ncnc2c1 [AZD2811] (first compound max 10 µM, 7x7, partner max 1 µM) | 0.0219 | -0.023 | -0.0368 | 0.0278 | 0.0227 | 0.0183 | -0.0385 | 0.0063 | -0.0209 | -0.018 | 0.0204 | 1 | 0.82 | 0.855 | 0.155 | 0.481 | 0.209 | 0.53 | 0.0971 | 0.331
COc1cccc(OCCCN)c1-c1cc(Nc2cnc(C#N)cn2)n[nH]1 [Prexasertib] + O=C(c1cc(Cc2n[nH]c(=O)c3ccccc23)ccc1F)N1CCN(C(=O)C2CC2)CC1 [Olaparib] (first compound max 1 µM, 7x7, partner max 10 µM) | -0.0461 | 0.0116 | -0.0009 | -0.0113 | -0.0732 | -0.0053 | -0.0203 | -0.0344 | 0.0038 | -0.009 | -0.0895 | 1 | 0.919 | 0.976 | 0.593 | 0.986 | 0.877 | 0.765 | 0.682 | 0.749
CC1(C)CCC(CN2CCN(c3ccc(C(=O)NS(=O)(=O)c4ccc(NCC5CCOCC5)c([N+](=O)[O-])c4)c(Oc4cnc5[nH]ccc5c4)c3)CC2)=C(c2ccc(Cl)cc2)C1 [Venetoclax] + CCN(CCO)CCCOc1ccc2c(Nc3cc(CC(=O)Nc4cccc(F)c4)[nH]n3)ncnc2c1 [AZD2811] (first compound max 1 µM, 7x7, partner max 1 µM) | -0.0359 | -0.0428 | 0.0016 | -0.0305 | 0.0012 | -0.0146 | -0.0548 | -0.0192 | -0.0292 | -0.007 | -0.0216 | 1 | 0.806 | 0.911 | 0.361 | 0.382 | 0.305 | 0.299 | 0.187 | 0.614
C=CCn1c(=O)c2cnc(Nc3ccc(N4CCN(C)CC4)cc3)nc2n1-c1cccc(C(C)(C)O)n1 [AZD1775] + C1CN(CCC1(C(=O)N[C@@H](CCO)C2=CC=C(C=C2)Cl)N)C3=NC=NC4=C3C=CN4 [Capivasertib] (first compound max 3 µM, partner max 3 µM) | -0.0262 | 0.0185 | -0.0053 | -0.0183 | -0.0357 | -0.0787 | -0.0509 | -0.0787 | -0.0075 | 0.0017 | -0.0704 | 1 | 0.896 | 0.808 | 0.636 | 0.931 | 0.949 | 0.623 | 0.586 | 0.795
CC(=O)Nc1cccc(-n2c(=O)n(C3CC3)c(=O)c3c(Nc4ccc(I)cc4F)n(C)c(=O)c(C)c32)c1 [Trametinib] + Cc1nc(-c2cn3c(n2)-c2ccc(-c4cnn(C(C)(C)C(N)=O)c4)cc2OCC3)n(C(C)C)n1 [Taselisib] (first compound max 1 µM, 7x7, partner max 10 µM) | 0.147 | 0.162 | 0.0427 | 0.0554 | 0.0526 | 0.0412 | 0.0194 | -0.027 | 0.0988 | 0.129 | 0.181 | 0.653 | 0.591 | 0.673 | 1 | 0.544 | 0.227 | 0.984 | 0.702 | 0.796
Cn1cnc2c(F)c(Nc3ccc(Br)cc3Cl)c(C(=O)NOCCO)cc21 [Selumetinib] + C=CCn1c(=O)c2cnc(Nc3ccc(N4CCN(C)CC4)cc3)nc2n1-c1cccc(C(C)(C)O)n1 [AZD1775] (first compound max 10 µM, partner max 1 µM) | -0.022 | 0.0308 | 0.0035 | 0.0111 | -0.0432 | -0.0443 | -0.0491 | -0.0939 | -0.0882 | -0.0555 | 0.0598 | 1 | 0.739 | 0.486 | 0.877 | 0.947 | 0.926 | 0.62 | 0.588 | 0.847
Cn1cnc2c(F)c(Nc3ccc(Br)cc3Cl)c(C(=O)NOCCO)cc21 [Selumetinib] + CC(C)n1c(=O)n(C)c2cnc3cc(F)c(-c4ccc(OCCCN5CCCCC5)nc4)cc3c21 [AZD1390] (first compound max 10 µM, 7x7, partner max 0.3 µM) | 0.0046 | -0.0251 | -0.0103 | 0.002 | -0.0043 | -0.0415 | -0.0497 | -0.048 | -0.019 | -0.0542 | -0.0413 | 0.373 | 0.232 | 0.14 | 0.678 | 0.191 | 0.153 | 0.358 | 0.284 | 0.532
CCN(CCO)CCCOc1ccc2c(Nc3cc(CC(=O)Nc4cccc(F)c4)[nH]n3)ncnc2c1 [AZD2811] + O=C(c1cc(Cc2n[nH]c(=O)c3ccccc23)ccc1F)N1CCN(C(=O)C2CC2)CC1 [Olaparib] (first compound max 1 µM, 7x7, partner max 10 µM) | -0.0495 | -0.016 | -0.0044 | -0.0105 | 0.0007 | 0.0072 | -0.0451 | -0.0423 | -0.0232 | 0.02 | -0.0139 | 1 | 0.735 | 0.918 | 0.21 | 0.315 | 0.384 | 0.508 | 0.0755 | 0.279
Cc1cc2ncnn2cc1Nc1ncc2c(n1)n(C1CCOCC1)c(=O)n2C [AZD7648] + C=CCn1c(=O)c2cnc(Nc3ccc(N4CCN(C)CC4)cc3)nc2n1-c1cccc(C(C)(C)O)n1 [AZD1775] (first compound max 10 µM, partner max 1 µM) | 0.0187 | -0.0588 | -0.0349 | -0.0133 | -0.0091 | -0.0242 | 0.016 | 0.0078 | -0.0211 | 0.0146 | -0.0457 | 1 | 0.611 | 0.541 | 0.748 | 0.929 | 0.933 | 0.563 | 0.656 | 0.697
CC(=O)c1c(C)c2cnc(Nc3ccc(N4CCNCC4)cn3)nc2n(C2CCCC2)c1=O [Palbociclib] + Cn1cnc2c(F)c(Nc3ccc(Br)cc3Cl)c(C(=O)NOCCO)cc21 [Selumetinib] (first compound max 10 µM, 7x7, partner max 10 µM) | -0.0011 | 0.0224 | -0.0393 | -0.036 | 0.0336 | -0.0429 | -0.0379 | -0.0447 | -0.0736 | -0.0008 | 0.0393 | 0.833 | 0.351 | 0.609 | 0.735 | 0.587 | 0.47 | 0.542 | 0.452 | 0.648
COc1nnc2ccc(N3CCC(c4ccc(OCCN5CCN(C)C(=O)[C@H]5C)cc4)CC3)nn12 [AZD5153] + C=CCn1c(=O)c2cnc(Nc3ccc(N4CCN(C)CC4)cc3)nc2n1-c1cccc(C(C)(C)O)n1 [AZD1775] (first compound max 1 µM, partner max 1 µM) | 0.0547 | -0.0459 | -0.0377 | -0.0734 | -0.0532 | -0.0353 | -0.0406 | -0.0531 | -0.05 | -0.0163 | -0.0922 | 1 | 0.847 | 0.795 | 0.735 | 0.944 | 0.943 | 0.595 | 0.693 | 0.637

Reference: the supplement of paper PMC11061612
